The assay deals with T1, Gag-Pol polyprotein [588-1027]/[588-1147] (Human immunodeficiency virus 1, UniProt P04585).
T1 construct: 588-1027; 588-1147
The assay can be described thus: Tested for inhibition against HIV-1 RT (used (poly)rC-(oligo)dG as the template).

In turn, `CCc1cc(CCc2nc3c(o2)CCCC3)c(=O)[nH]c1C` [5-ethyl-6-methyl-3-[2-(4,5,6,7-tetrahydro-1,3-benzoxazol-2-yl)ethyl]-1,2-dihydropyridin-2-one] yielded an IC50 of 0.058 µM.

`CCc1cc(CCc2nc3ccccc3o2)c(N)nc1C` [3-[2-(1,3-benzoxazol-2-yl)ethyl]-5-ethyl-6-methylpyridin-2-amine] showed an IC50 of 100 µM.

Values taken from BindingDB's records for doi:10.1021/jm00060a002 (Merck Reserch Laboratories, 1993).
